Measured values published in patent US20240325375A1, “Effect of YEL002 on Psychological and Psychiatric Factors in Health and Disease” (RadMit, Inc., priority 2023, published 2024).

Experiments:
[1] = Side effects and blood thinning; type: in vivo
Experimental: Thus, if nose bleeding occurs at that dose when blowing one's nose, one should reduce the dose to half and nose bleeding will stop within about 12 hours or less. Once the flue or sneezing is gone one may increase the dose again.
(§1) It is also observed that three different cancer cell lines were not protected from radiation killing by YEL002, which indicates a use in radiation oncology or chemotherapy where the tumor can still be killed by the radiation, or chemotherapy but YEL002 protects the rest of the body from radiation or chemotherapy damage, and inhibits secondary carcinogenesis.

[2] = test system: lymphoma; test: Lymphoma incidence in mice (National Institute of Health experiment); type: in vivo; conditions: radiation exposure caused 90% to develop lymphoma without treatment
Experimental: In another experiment at the National Institute of Health, in other mice after radiation exposure which caused 90% of them to develop lymphoma, there was a reduction of the lymphoma incidence to 40% and the spontaneous frequency was reduced from 10-20% down to 0%. […] This was observed after treating mice right after birth, if humans are treated later in life it is possible that only 10 or 5 years are added and probably more for DNA repair deficient diseases like ataxia telangiectasia (ATM) which is still very substantial, especially, since it treats and reduces the likelihood of many diseases.

[3] = Case studies and patient testimonials; type: in vivo, human
[4] = test system: ATM-deficient mice; test: Lifespan of ATM-deficient mice injected weekly; type: in vivo; conditions: ATM-deficient mice injected every week during most of their lifespans
Source text: It is speculated that this is because the primary screen applied was against radiation-induced toxicity as well as genotoxicity which causes cancer. Researchers involved in other labs were screening only against radiation-induced toxicity and thereby cells with genotoxicity survive and cause even more cancer and late effects of which surviving mice died. In our experiments, however, a screen against radiation induced toxicity as well as genetic instability made sure that the surviving cells also had no genetic instability which otherwise would have led to an increase in cancer and other diseases. In the experiment, ATM-deficient mice injected every week with YEL002 during most of their lifespans lived 33% longer than without injections.

[5] = Solubility of the powder; type: physicochemical; conditions: off-white powder
Experimental: The compound takes the appearance of an off-white powder and is fat soluble. One takes an eighth teaspoon or about 0.5 g dissolved in a couple of teaspoons of oil. In an exemplary embodiment, it is dissolved in grape seed or any other appropriate oil and taken twice a day, once in the morning and once in the evening. It is easy to use and has almost no taste.

[6] = test system: three different cancer cell lines; test: Radiation killing of cancer cell lines; type: cell-based
Source text: as §1

[7] = PHQ-9 assessment of a patient with recalcitrant depression; type: in vivo, human
Experimental: If they work at all, improvements take at least 4 weeks and may increase patient weight. In this patient's assessment using a standard PHQ-9 form, the patient was assessed before and after treatment with YEL002. The PHQ-9 form assigns a numerical value corresponding to the level of depression, meaning a higher level means increased depression values. In this patient, before treatment, the values was in 3 different instances 6, 9 and 15 with designation of “very difficult” and “extremely difficult” and they cried 3 times during 30 minutes of our interview and said they hate the world. Before the test indicates mild depression to moderately severe depression. […] Since there is no lower designation this indicates no depression. This is also called snapping out of depression, which was a technical term in the past because it was not observed before now.

[8] = test system: Covid virus; type: in vivo; conditions: compared with without YEL002
[9] = Effects on pets (cats); type: in vivo; conditions: cats after treatment
Experimental: Effects on pets. My cats, Susie and Celine were the sweetest cats before I started to treat them. But after treatment they are now even sweeter, cuddlier and more attached to me, and sleep 2 hours longer per day. I call them lap cats now like the dog pendant. They lost loofiness, shyness to new visitors, quietly sit next to each other and licking each other or me and just want to sit close to me or on my lap and be petted. Before after 5 to 10 minutes of petting they just left and did something else. Now they stay for hours and the only reason for them to leave is when I stop petting them. And they are even better at play and jump exactly, landing where they intend to, don't bump into things and catch the toys the first time every time.

[10] = test system: irradiated mice; test: Radiation mitigation in mice irradiated with an LD100; type: in vivo
[11] = Clinical trial on psychological, psychiatric and memory loss endpoints; type: in vivo, human
Source text: 7 less argumentative, 10 less angry or aggressive. 8 experienced better quality sleep. 8 needed less sleep and 5 became nicer. It gets rid of addictions and reduces symptoms of depression and Alzheimer's disease.

[12] = test system: human keratinocytes; test: Proteomics study of protein induction; type: cell-based
Source text: In terms of mechanism of action in a proteomics study, the chemical was capable of inducing 244 different proteins in human keratinocytes, which comprised anti-inflammatory proteins, DNA repair proteins, and 9 neuroprotective proteins. It is known that turtles at the Galapagos Islands live 150 or more years without cancer and have multiple copies of DNA repair genes and anti-inflammatory genes. The compound boosts the expression of these genes in mammals. Since it induces DNA repair and is anti-inflammatory, it may be possible to prevent and cure many diseases and extend the life.
A direct effect of YEL002 on the autonomic or sympathetic nervous system, the flight or fight response, which can explain all the effects that we find.

[13] = heavy smoker, one week after treatment
[14] = subject on chemotherapy, one week on YEL002

In the case of `COc1ccc2cc(-c3nc4ccc(C)cn4c3NCc3ccco3)c(=O)[nH]c2c1` [YEL002], the “blood-thinning; nose bleeding at the dose” value ([1]; about 1 gram per day, nose bleeding stops within about 12 hours or less at half dose) is reported as “blood-thinning properties”, the side effects ([1]; in vivo) is reported as “no side effects” and the “lymphoma incidence after radiation exposure” value [2] is reported as 40%. The “memory of patient with Alzheimer's disease” value ([3]; after 4 weeks treatment) was “improved”, the cholesterol ([3]; after two days of treatment) was “normal” and the “symptoms of coughing and diarrhea” value ([3]; case study, used for eight weeks) was “reduced symptoms of coughing and diarrhea”. The “allergic attacks such as sneezing and runny nose” value ([3]; dissolved in oil, nose spray 2-4 times a day) was “completely prevented”, the hair loss [3, 13] was “completely stopped” and the “smoker's legs oozing lymph liquid” value [3, 13] was “completely healed”. The astigmatism fixed ([3]; in only 4 weeks) was 1, the eye-sight deficiency fixed ([3]; in only 4 weeks) was 2 diopters and the “coughing and wheezing symptoms post-chemotherapy” value ([3]; one hour after treatment) was “completely alleviated”. The blood ([3]; patient testimonial) was “thinner”, the “major arguments with spouse” value ([3]; patient with long COVID19 and diabetes, 5-10 before treatment) was 0-1 per day and the “memory of another person” value ([3]; remembers where they left their car) was “much improved”. The vomiting under chemotherapy [3, 14] was “completely stopped”, the weight gained [3, 14] was 2 kg and the “levels of liver damage” value ([3]; twice elevated for 25 years, after two days of treatment) was “normal and below the cutoff”. The alcohol addiction ([3]; two alcoholics) was “completely cured”, the “periodontics or receding gums” value ([3]; user study) was “healed” and the “lived longer than without injections” value [4] was 33%. The solubility [5] was “fat soluble”, the “protection of cancer cell lines from radiation killing” value [6] was “not protected” and the “PHQ-9 value after treatment” value ([7]; after one week on YEL002, the following two weeks, before treatment 6, 9 and 15) was 3. For the same molecule, the “PHQ-9 difficulty designation after treatment” value ([7]; before treatment very difficult and extremely difficult) was “somewhat difficult”, the recalcitrant depression outcome ([7]; person with depression for 20 years, within one week) was “completely cured” and the “clearance of Covid virus” value [8] was “cleared faster”. The cats sleep longer [9] was 2 hours per day, the “survival of irradiated mice” value ([10]; LD100 radiation, IP injection 24 hours after radiation and another four doses in 24 hours intervals, without it 100% died after 10 to 15 days) was 100% and the “life span of surviving irradiated mice” value ([10]; many of the surviving mice, normal life span) was “more than 2 years”. For the same molecule, the became nicer [11] was 5 people, the “experienced better quality sleep” value [11] was 8 people and the felt more energetic [11] was 10 people. The “less angry or aggressive” value [11] was 10 people, the less argumentative [11] was 7 people and the less combative [11] was 7 people. The less tired [11] was 5 people, the needed less sleep [11] was 8 people and the “number of different proteins induced” value ([12]; human keratinocytes, anti-inflammatory, DNA repair and neuroprotective proteins) was 244 proteins. For the same molecule, the “number of neuroprotective proteins/functions induced” value ([12]; proteomics) was 9.
